# Test results as given in patent US11034980B2, “Microbial engineering for the production of isoprenoids” (Massachusetts Institute of Technology, priority 2018, dated 2021).
# Read-outs that look alike come from different tables or passages of the source.
# T1: choline kinase from Saccharomyces cerevisiae (ScCK) (Saccharomyces cerevisiae, UniProt P20485)
# T1 construct: S. cerevisiae (AAA34499.1), codon optimized; made in house; host or cells: E. coli BL21 (DE3)
# T1 sequence (P20485 1-582): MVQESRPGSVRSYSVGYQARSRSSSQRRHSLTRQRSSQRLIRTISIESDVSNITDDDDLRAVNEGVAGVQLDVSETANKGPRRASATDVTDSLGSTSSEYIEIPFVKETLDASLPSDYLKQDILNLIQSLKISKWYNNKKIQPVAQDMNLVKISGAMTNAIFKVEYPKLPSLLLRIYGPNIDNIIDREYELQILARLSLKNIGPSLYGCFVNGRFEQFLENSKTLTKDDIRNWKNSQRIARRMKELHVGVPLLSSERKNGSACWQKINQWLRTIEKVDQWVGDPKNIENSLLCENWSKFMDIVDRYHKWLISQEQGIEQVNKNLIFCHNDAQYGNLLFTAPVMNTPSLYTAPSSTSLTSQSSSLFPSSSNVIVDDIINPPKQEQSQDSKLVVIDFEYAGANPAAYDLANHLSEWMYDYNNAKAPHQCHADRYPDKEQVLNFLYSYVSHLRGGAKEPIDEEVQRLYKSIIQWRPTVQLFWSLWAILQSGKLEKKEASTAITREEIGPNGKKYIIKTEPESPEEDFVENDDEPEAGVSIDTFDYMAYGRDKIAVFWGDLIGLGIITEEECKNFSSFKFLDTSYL
# T2: isopentenyl phosphate kinase (IPK) (Arabidopsis thaliana, UniProt Q8H1F7)
# T2 construct: Arabidopsis thaliana (AAN12957.1), codon optimized; made in house; host or cells: E. coli BL21 (DE3)
# T2 sequence (Q8H1F7 1-332): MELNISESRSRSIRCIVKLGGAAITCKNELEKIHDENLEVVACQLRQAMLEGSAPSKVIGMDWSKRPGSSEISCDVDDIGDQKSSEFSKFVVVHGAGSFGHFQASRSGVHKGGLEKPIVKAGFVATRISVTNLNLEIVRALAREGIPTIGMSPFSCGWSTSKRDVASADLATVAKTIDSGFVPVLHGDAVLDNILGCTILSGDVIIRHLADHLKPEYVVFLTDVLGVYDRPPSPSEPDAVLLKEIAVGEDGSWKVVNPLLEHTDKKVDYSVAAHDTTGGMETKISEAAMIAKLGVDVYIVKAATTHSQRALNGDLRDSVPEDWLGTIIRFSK
# Legend:
# [1] = biological target: T1, choline kinase from Saccharomyces cerevisiae (ScCK); conditions: Table 6, Ref Chatzivasileiou et al., 2018; cited from earlier work
# [2] = biological target: Farnesyl pyrophosphate synthase (IspA) (Escherichia coli, UniProt P22939); conditions: cited from earlier work; for Km: Ref Ku et al., 2005, Weaver et al., 2015
# [3] = tested on: multi-enzyme system (CK, IPK, IDI, IspA, GGPPS, TDS); assay: Titration of cofactors and potential inhibitors in the taxadiene multi-enzyme system; assay type: biochemical
# Procedure: The multi-enzyme system reactions were carried out in 50 mM ammonium bicarbonate (pH 7.4) with 10 mM MgCl2, 2 mM MnCl2, 0.05% (w/v) Tween 20, 10 mM ATP, and 5 mM isoprenol at 30° C. unless otherwise stated. The solution in glass GC vials (Agilent) were overlaid with 1/10 volume of dodecane to entrap the volatile isoprenoids. An initial estimated optimal concentration of each enzyme was calculated using the rates determined by individual enzyme assays. The final optimized enzyme concentrations were determined to be 25 μg/mL CK, 15 μg/mL IPK, 25.4 μg/mL IDI, 37.15 μg/mL IspA, 8.15 μg/mL GGPPS, and 25 μg/mL for TDS.
# A possible explanation for such inhibitions could be that the enzymes would salt out when a combined amount of >20 mM ATP+ADP (sodium salts) are added to the mixture. […] Since 8 moles of ATP are necessary for the synthesis of 1 mole of taxadiene, salting out of proteins by high concentrations of ATP sodium salt limits that maximum titer of taxadiene that can be achieved using this system making ATP the limiting reagent. […] Furthermore, the consumption of isoprenol in this process could not be determined due to the high variability the utilized GC-FID assay which could not accurately measure such small changes in isoprenol concentration.
# [4] = tested on: Geranylgeranyl pyrophosphate synthase (GGPPS); conditions: reported elsewhere (Hefner et al., 1998); cited from earlier work
# [5] = biological target: T2, isopentenyl phosphate kinase (IPK); assay: IPK kinetics by ATP consumption, PK-LDH coupled NADH assay; assay type: biochemical; conditions: 10 mM ATP, 30° C., pH 7.4
# Procedure: A single colony from each strain containing one plasmid for the expression of a single enzyme was inoculated into 5 mL of sterile LB media (BD Sciences) with kanamycin and grown overnight at 37° C. One milliliter was then inoculated into a 1 L flask containing 200 mL of sterile SOB media (AMERSCO) with kanamycin. The culture was grown at 30° C. until an optical density (OD) of 0.4-0.6 (λ=600 nm). At this point protein production was induced by the addition of IPTG for a final concentration of 0.1 mM and continued at 30° C. for 3 h. Cells were harvested by centrifugation at 3750 rpm in an Allegra X12R centrifuge (Beckman-Coulter). The supernatant was removed and the cell pellets were frozen at −20° C. until purification. Proteins were visualized by SDS-PAGE performed accordingly to the manufacturer's guidelines (Bio-rad). Gradient (4-20%) gels were purchased from Biorad, as were the Kaleidoscope pre-stained protein ladder, Laemmli 4× sample buffer, Tris-glycine-SDS buffer, and mini-protean electrophoresis chambers. Gels were stained using Instant-Blue (Expedeon). Protein concentrations were very roughly estimated from the gel using Image J (NIH) in order to determine an appropriate amount of resin for purification. Protein Purification All purification steps were performed in a single day on ice and in a cold room when possible. Cell pellets were thawed and resuspended in 30 mL of NPI-10 buffer (50 mM NaH2PO4, 300 mM NaCl, 10 mM imidazole, pH 8.0) and supplemented with 0.5 mM PMSF immediately prior to cell lysis. Cells were lysed by 2-3 passages through an EmulsiFlex-C5 high-pressure homogenizer (Avestin). Lysates were then centrifuged at 4 C for 15 min to remove cellular debris. The clarified lysate was loaded onto a Ni-NTA resin (Gold Bio, capacity 50 mg/mL) which was housed in a gravity column (Thermofisher) and was pre-equilibrated with 10 column volumes (CV) of NPI-10 buffer. The column was then washed with 10 CV of NPI-20 buffer (20 mM imidazole). The enzyme was then eluted from the column by 3 CV using NPI-250 buffer (250 mM imidazole). Enzymes were then exchanged into 50 mM Tris-HCl pH 7.5 using 10 kDa Microseps (Millipore) by centrifugation and repeated buffer exchanges until the imidazole was calculated to be under 1 mM. […] Enzyme concentration was determined using a bicinchoninic acid (BCA) assay kit from Pierce using bovine serum albumin as a standard (BSA). […] The kinetics for CK were previously determined as described. The kinetics for IPK were determined by ATP consumption using a pyruvate kinase (PK) lactate dehydrogenase (LDH) coupled assay (FIGS. 16A & 16B). […] NADH was made fresh each time and the appropriate concentration was determined by constructing a standard curve using a SpectraMax M3 and selecting the highest value in the linear range. […]
# [6] = substrate: CC(C)=CCO; assay: In vitro kinetic assay of purified choline kinase with isoprenol or prenol (LC-MS/MS); assay type: biochemical, Saccharomyces cerevisiae; conditions: other: 37° C., fixed ATP concentration, purified ScCK, pH 7.5
# Procedure: (§1) Enzyme assays for screening of isopentenol kinase activity was performed as follows. The purified enzymes were added to the enzyme assay master mix for a final concentration of 2 mM ATP, 10 mM MgCl2, 50 mM NH4HCO3 pH 7.5, and 600 μM isoprenol or prenol. They were incubated overnight at 37° C. The reactions were stopped using 5 volumes of ice-cold acetonitrile and centrifuged to remove precipitated proteins using a plate adaptor at 3273×g for 15 min. The supernatant was transferred to a new microplate and frozen at −80° C. The liquid was removed by a 4.5 L lyophilizer (Labconco) and the samples were resuspended in an equal volume of water and centrifuged again prior to quantification using LC-MS/MS.
# (§2) Kinetic enzyme assays were conducted using the standard assay conditions described above with the following changes. First, the linear range of the assay was determined over a 90 min period (FIG. 3). Initial velocity appeared linear over this period. Therefore, kinetic assays were quenched after 30 min. For assays at different temperatures, the standard reaction mixture was used while the temperature was varied using a water bath. […] Afterwards, reactions were performed in the standard reaction mixture with NH4HCO3 buffer was adjusted to the appropriate pH. For Michaelis-Menten kinetics, only the concentration of isoprenol or prenol was varied between 1.5-50 μM.
# [7] = substrate: C=C(C)CCO; assay: as above; assay type: biochemical, Saccharomyces cerevisiae; conditions: other: 37° C., fixed ATP concentration, purified ScCK, pH 7.5
# Procedure: as §1, §2
# Chain of Farnesyl pyrophosphate synthase (IspA) (P22939 whole entry): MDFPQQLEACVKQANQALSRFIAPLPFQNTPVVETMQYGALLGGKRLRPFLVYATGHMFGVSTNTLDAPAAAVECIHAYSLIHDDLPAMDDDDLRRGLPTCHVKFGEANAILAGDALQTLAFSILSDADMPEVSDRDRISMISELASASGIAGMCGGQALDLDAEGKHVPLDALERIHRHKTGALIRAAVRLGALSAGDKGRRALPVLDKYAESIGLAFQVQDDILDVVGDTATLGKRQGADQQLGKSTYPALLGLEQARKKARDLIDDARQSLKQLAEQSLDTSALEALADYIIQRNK
molecule,measurement,setting,value
"C=C(C)CCO [Isoprenol, 3-methyl-3-buten-1-ol]",Km,[1],4.54 mM
same,kcat,[1],14.7 S^−1
"CC(C)=CCOP(=O)(O)OP(=O)(O)O [DMAPP, dimethylallyl pyrophosphate]",Km,[2]; reaction IPP + DMAPP,1.3 µM
"Nc1ncnc2c1ncn2[C@@H]1O[C@H](COP(=O)(O)OP(=O)(O)OP(=O)(O)O)[C@@H](O)[C@H]1O [ATP, adenosine triphosphate]",ATP levels that completely inhibited IspA,[2]; Chen et al. (2017),above 5 mM
same,effect on taxadiene production,[3]; 20 mM ATP,completely inhibited
"CC(C)=CCC/C(C)=C/CC/C(C)=C/COP(=O)(O)OP(=O)(O)O [FPP, farnesyl diphosphate]",Km,[4],7 µM
"CC(C)=CCOP(=O)(O)O [DMAP, dimethylallyl monophosphate]",Km,[5],35.5 µM
same,kcat,[5],53.1 S^−1
"CC(C)=CCC/C(C)=C/COP(=O)(O)OP(=O)(O)O [GPP, geranyl diphosphate]",Km,[2]; reaction IPP + GPP,10.3 µM
"Nc1ncnc2c1ncn2[C@@H]1O[C@H](COP(=O)(O)OP(=O)(O)O)[C@@H](O)[C@H]1O [ADP, adenosine diphosphate]",effect on taxadiene production,[3]; ADP 0-20 mM in the presence of 10 mM ATP,Some inhibition
"CC(C)=CCO [Prenol, 3-methyl-2-buten-1-ol]",Km,[1],1.11 mM
same,kcat,[1],1.13 S^−1
"choline kinase from Saccharomyces cerevisiae (ScCK) (Saccharomyces cerevisiae S288C) (protein, S. cerevisiae (AAA34499.1), codon optimized; made in house; host or cells: E. coli BL21 (DE3)) MVQESRPGSVRSYSVGYQARSRSSSQRRHSLTRQRSSQRLIRTISIESDVSNITDDDDLRAVNEGVAGVQLDVSETANKGPRRASATDVTDSLGSTSSEYIEIPFVKETLDASLPSDYLKQDILNLIQSLKISKWYNNKKIQPVAQDMNLVKISGAMTNAIFKVEYPKLPSLLLRIYGPNIDNIIDREYELQILARLSLKNIGPSLYGCFVNGRFEQFLENSKTLTKDDIRNWKNSQRIARRMKELHVGVPLLSSERKNGSACWQKINQWLRTIEKVDQWVGDPKNIENSLLCENWSKFMDIVDRYHKWLISQEQGIEQVNKNLIFCHNDAQYGNLLFTAPVMNTPSLYTAPSSTSLTSQSSSLFPSSSNVIVDDIINPPKQEQSQDSKLVVIDFEYAGANPAAYDLANHLSEWMYDYNNAKAPHQCHADRYPDKEQVLNFLYSYVSHLRGGAKEPIDEEVQRLYKSIIQWRPTVQLFWSLWAILQSGKLEKKEASTAITREEIGPNGKKYIIKTEPESPEEDFVENDDEPEAGVSIDTFDYMAYGRDKIAVFWGDLIGLGIITEEECKNFSSFKFLDTSYL",Km,[6],1113 µM
same,kcat,[6],1.1 s⁻¹
same,Km,[7],4.539 mM
same,kcat,[7],14.7 s⁻¹
